These results are taken from patent EP0920857B1, “Oral composition for the treatment of halitosis” (DENTAID, S.A., priority 1997, dated 1999).

The structures appear in SMILES notation. Read-outs that look alike come from different tables or passages of the source.

Holding throughout (format): cell-based
Test [1] deals with mixture of periodontal bacteria. Put plainly: short interval killing test (SIKT), total surviving flora. The source says: (§1) The anti-microbial activity of the mouth rinse evaluated "in vitro" by mortality studies over short intervals of time (short interval killing test, SIKT) against a mixture of periodontal bacteria containing between 1.0*10^5 and 1.0*10^7 CFU ml of each strain. The total counts obtained in the surviving flora and those pertaining to each strain after one minute of contact are summarised in Tables 3 and 4. TABLA 3

Test [2] concerns P. gingivalis. Put plainly: short interval killing test (SIKT), count per strain.
Description: as §1

The test system of test [3] is P. intermedia. Described as above.
Description: as §1

Test [4] concerns F. nucleatum. The description is as above.
Description: as §1

Test [5] relates to Peptostreptococcus micros. The test is described as above.
Description: as §1

Test [6] deals with P.gingivalis. Put plainly: minimum inhibitory concentration (MIC), method of diffusion in agar. The source says:
(§2) The anti-microbial activity of a certain number of active ingredients was obtained by study of the minimum inhibitory concentrations (MIC) of the respective agents (by the method of diffusion in agar) against bacteria representing periodontal disease.

For test [7], the system named is P.intermedia. The test is described as above.
Description: as §2

Test [8] relates to A.actinomycetemcomitans. Described as above.
Description: as §2

Setting [9] is: one minute of contact, 1.0*10^5 to 1.0*10^7 CFU ml of each strain, PBS = 100%.
[10] abbreviates: P. gingivalis, one minute of contact, PBS = 100%.
[11] abbreviates: P. intermedia, one minute of contact, PBS = 100%.
Where [12] appears, read: F. nucleatum, one minute of contact, PBS = 100%.
Setting [13] is: Peptostreptococcus micros, one minute of contact, PBS = 100%.

For the compound `N=C(NCCCCCCNC(=N)NC(=N)Nc1ccc(Cl)cc1)NC(=N)Nc1ccc(Cl)cc1.O=C(O)[C@H](O)[C@@H](O)[C@H](O)[C@H](O)CO.O=C(O)[C@H](O)[C@@H](O)[C@H](O)[C@H](O)CO` [CHX, 1,6-bis (N^5-p-chlorophenyl-N^1-diguanido)hexane digluconate], the “Total CFU/ml recovered (%) at 1 minute” value in test [1] (setting [9]) is listed as 25.55%. The “CFU/ml recovered from each strain (%)” value is under 0.81% in test [2] (setting [10]), under 0.56% in test [3] (setting [11]), 0.87% in test [4] (setting [12]) and 82.12% in test [5] (setting [13]).
For `CCCCCCCCCCCCCCCC[n+]1ccccc1` [CPC, cetylpyridinium chloride], the “Total CFU/ml recovered (%) at 1 minute” value in test [1] worked out at 0.04%. Besides, the “CFU/ml recovered from each strain (%)” value in test [2] is on record as under 0.01%; in test [3], 0.01%; in test [4], 0.05%; in test [5], 0.03%.
Take `[H]/N=C(\N/C(=N/[H])NCCCCCCNC(=N)NC(=N)Nc1ccc(Cl)cc1)Nc1ccc(Cl)cc1` [Chlorhexidine]: the “Minimum inhibitory concentration (%)” value in test [6] was 0.002%. Also, in test [7], the “Minimum inhibitory concentration (MIC, % concentration)” value was found to be 0.0009%. Further, in test [8], the Minimum inhibitory concentration was found to be 0.004%.
Turning to `O=C([O-])[C@H](O)[C@@H](O)[C@H](O)[C@H](O)CO.O=C([O-])[C@H](O)[C@@H](O)[C@H](O)[C@H](O)CO.[Cu+2]` [Cu^++ gluconate], the “Minimum inhibitory concentration (%)” value in test [6] amounted to 0.06%. Besides, the “Minimum inhibitory concentration (MIC, % concentration)” value in test [7] was 0.004%.
As for `CCCCC(CC)CN1CN(CC(CC)CCCC)CC(C)(N)C1` (centres unmarked) [Hexetidine], the “Minimum inhibitory concentration (%)” value in test [6] is recorded as 0.001%. Moreover, the “Minimum inhibitory concentration (MIC, % concentration)” value in test [7] is 0.001%. This compound also displayed a Minimum inhibitory concentration in test [8] of 0.09%.
Regarding `Oc1cc(Cl)ccc1Oc1ccc(Cl)cc1Cl` [Triclosan, 5-chloro-2-(2,4-dichlorophenoxy)-phenol], in test [6], the “Minimum inhibitory concentration (%)” value is listed as 0.004%. Further, the “Minimum inhibitory concentration (MIC, % concentration)” value in test [7] is recorded as 0.009%. Further, in test [8], the Minimum inhibitory concentration was 0.0006%.
With `O=S(=O)([O-])[O-].[Zn+2]` [Zn^++, sulphate], the “Total CFU/ml recovered (%) at 1 minute” value in test [1] (setting [9]) was found to be 47.65%. Further, the “Minimum inhibitory concentration (%)” value in test [6] was determined as 0.5%. In addition, the “Minimum inhibitory concentration (MIC, % concentration)” value in test [7] turned out to be 0.5%. In addition, in test [8], the Minimum inhibitory concentration was 0.1%. The “CFU/ml recovered from each strain (%)” value in test [2] (setting [10]) is 33.9%; in test [3] (setting [11]) it was 0.56%; in test [4] (setting [12]), 40.9%; in test [5] (setting [13]), 54.5%.
